Experimental data taken from patent US20020013324A1, “N-substituted imide derivatives with serotonergic activity” (American Home Products Corporation, priority 1999, published 2002).
Where a name gives a salt, the structure may show the parent alone.

What was measured:
[1] = molecular target: T1, human 5-HT1A receptor (Homo sapiens, UniProt P08908); experiment: Displacement of [3H]8-OH-DPAT from the 5-HT1A receptor in transfected CHO cells; details: [3H]-8-OH-DPAT 1.5 nM; CHO cells with human 5-HT1A receptor; nonspecific binding with 10 μM 5-HT; room temperature; read-out: 5-HT1A Affinity (IC50)
T1 construct: expressed in transfected cells; host or cells: CHO cells (stably transfected)
T1 sequence (P08908 1-422): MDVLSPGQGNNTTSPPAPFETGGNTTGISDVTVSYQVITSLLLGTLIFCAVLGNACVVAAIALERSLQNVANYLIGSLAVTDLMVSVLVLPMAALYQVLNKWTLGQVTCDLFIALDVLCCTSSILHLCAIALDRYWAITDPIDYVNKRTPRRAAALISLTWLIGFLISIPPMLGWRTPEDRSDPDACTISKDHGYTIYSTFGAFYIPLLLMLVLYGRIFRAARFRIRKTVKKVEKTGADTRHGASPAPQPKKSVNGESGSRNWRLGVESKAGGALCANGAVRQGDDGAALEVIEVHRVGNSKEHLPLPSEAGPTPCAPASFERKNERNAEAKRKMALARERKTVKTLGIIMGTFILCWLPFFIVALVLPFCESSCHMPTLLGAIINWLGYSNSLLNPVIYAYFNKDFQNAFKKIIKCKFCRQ
From the text: Affinity for the serotonin 5-HT1A receptor was established by assaying the test compound's ability to displace [3H]8-OHDPAT (dipropylaminotetralin) from its binding site on the receptor complex in CHO cells stably transfected with the human 5-HT1A receptor following a variation of a procedure of J. Zgombick et al., Naunyn-Schmiedeberg's Arch. Pharmacol., 354, 226-236 (1996), as described by J. Dunlop, Y. Zhang, D. L. Smith and L. E. Schechter, Journal of Pharmacological and Toxicological Methods 40, 47-55 (1998). The variation includes: the use of cells containing clonal human 5-HT1A receptor in place of 5-HT1D receptor; the use of [3H]-8-OH-DPAT (1.5 nM) as radioligand in place of [3H]-LSD; nonspecific binding determined with 10 μM 5-HT; and the test procedure was run at room temperature rather than 37° C.

| Molecule | IC50 [1] [nM] | melting point [°C] |
| --- | --- | --- |
| COc1ccccc1N1CCN(C[C@@H](Cc2ccccc2)N(C(=O)C2CCCCC2)C(=O)C2CCCCC2)CC1 (as salt: fumarate) [Example 10, (R)-Cyclohexanecarboxylic acid cyclohexanecarbonyl-{1-benzyl)-2-[4-(2-methoxy-phenyl)-piperazin-1yl]-ethyl}-amide fumarate] |  | 146 to 147 |
| O=C(C1CCCCC1)N(CCN1CCN(c2cccc3c2OCCO3)CC1)C(=O)C1CCCCC1 [Example 8, Cyclohexanecarboxylic acid cyclohexanecarbonyl-{2-[4-(2,3-dihydro-benzo[1,4]-dioxin)-5-yl}-piperazin-1-yl]-ethyl}-amide sesquihydrochloride monohydrate] | 4.77 |  |
| (R)-Cyclohexanecarboxylic acid cyclohexanecarbonyl-{1-methyl-2-[4-(2-methoxyphenyl)-piperazin-2-yl]-ethyl}-amide fumarate [Example 9] | 2.69 |  |
| Cl.Cl.O=C(C1CCCCC1)N(CCN1CCN(c2cccc3[nH]ccc23)CC1)C(=O)C1CCCCC1 [Example 7, Cyclohexanecarboxylic acid cyclohexanecarbonyl-{2-[4-(1H-indol-4-yl)-piperazin-1-yl]-ethyl}-amide dihydrochloride] | 4.55 | 144 to 146 |
| O=C(C1CCCCC1)N(CCN1CCN(c2cccc3c2OCCO3)CC1)C(=O)C1CCCCC1 (as salt: hydrochloride) (hydrate or solvate) [Example 8, Cyclohexanecarboxylic acid cyclohexanecarbonyl-{2-[4-(2,3-dihydro-benzo[1,4]-dioxin)-5-yl}-piperazin-1-yl]-ethyl}-amide sesquihydrochloride monohydrate] |  | 148 to 149 |
| COc1ccccc1N1CCN(CCN(C(=O)C2CCCCC2)C(=O)C2CCCCC2)CC1.Cl.Cl [Example 6, Cyclohexanecarboxylic acid cyclohexanecarbonyl-{2-[4-(2-methoxyphenyl)-piperazin-1-yl]-ethyl}-amide dihydrochloride] | 3.1 | 159 to 160 |
| COc1ccccc1N1CCN(CCN(C(=O)c2ccccc2)C(=O)c2ccccc2)CC1 [Example 15, N-Benzoyl-N-{-2-[4-(2-methoxyphenyl)-piperazin-1-yl]-ethyl}-benzamide hydrochloride hemihydrate] | 23.4 |  |

More lines, now with the values ahead:

| IC50 [1] [nM] | melting point [°C] | Molecule |
| --- | --- | --- |
| 79.6 |  | COc1ccccc1N1CCN(C[C@@H](C)N(C(=O)c2ccccc2)C(=O)c2ccccc2)CC1 [Example 16, (R)-N-Benzoyl-N-{1-methyl-2-[4-(2-methoxyphenyl)-piperazin-1-yl]-ethyl}-benzamide semifumarate-hemihydrate] |
| 0.78 |  | COc1ccccc1N1CCN(C[C@@H](Cc2cn(C)c3ccccc23)N(C(=O)C2CCCCC2)C(=O)C2CCCCC2)CC1 [Example 12, (R)-Cyclohexanecarboxylic acid cyclohexanecarbonyl-{1-[4-(2-methoxyphenyl)-piperazin-1-ylmethyl]-2-(1-methyl-1H-indol-3-yl)ethyl}-amide hydrochloride monohydrate] |
|  | 115 to 120 | COc1ccccc1N1CCN(C[C@@H](C)N(C(=O)c2ccccc2)C(=O)c2ccccc2)CC1 (as salt: fumarate) (hydrate or solvate) [Example 16, (R)-N-Benzoyl-N-{1-methyl-2-[4-(2-methoxyphenyl)-piperazin-1-yl]-ethyl}-benzamide semifumarate-hemihydrate] |
| 5.13 |  | O=C(c1ccccc1)N(CCN1CCN(c2cccc3c2OCCO3)CC1)C(=O)C1CCCCC1 [Example 14, Cyclohexanecarboxylic acid benzoyl-{2-[4-(2,3-dihydro-benzo[1,4]dioxin-5-yl)-1-piperazin-1-ylethyl]-amide hydrochloride sesquihydrate] |
| 61 |  | COc1ccccc1N1CCN(C[C@@H](Cc2ccccc2)N(C(=O)C2CCCCC2)C(=O)C2CCCCC2)CC1 [Example 10, (R)-Cyclohexanecarboxylic acid cyclohexanecarbonyl-{1-benzyl)-2-[4-(2-methoxy-phenyl)-piperazin-1yl]-ethyl}-amide fumarate] |
|  | 106 to 108 | COc1ccc(C[C@H](CN2CCN(c3ccccc3OC)CC2)N(C(=O)C2CCCCC2)C(=O)C2CCCCC2)cc1 (as salt: hydrochloride) [Example 11, (R)-Cyclohexanecarboxylic acid cyclohexanecarbonyl-{1-(4-methoxybenzyl)-2-[4-(2-methoxyphenyl)-piperazin-1-yl]-etlyl}-amide hydrochloride] |
|  | 169 to 171 | O=C(c1ccccc1)N(CCN1CCN(c2cccc3c2OCCO3)CC1)C(=O)C1CCCCC1 (as salt: hydrochloride) (hydrate or solvate) [Example 14, Cyclohexanecarboxylic acid benzoyl-{2-[4-(2,3-dihydro-benzo[1,4]dioxin-5-yl)-1-piperazin-1-ylethyl]-amide hydrochloride sesquihydrate] |
| 0.38 |  | COc1ccc(C[C@H](CN2CCN(c3ccccc3OC)CC2)N(C(=O)C2CCCCC2)C(=O)C2CCCCC2)cc1 [Example 11, (R)-Cyclohexanecarboxylic acid cyclohexanecarbonyl-{1-(4-methoxybenzyl)-2-[4-(2-methoxyphenyl)-piperazin-1-yl]-etlyl}-amide hydrochloride] |
|  | 136 to 138 | COc1ccccc1N1CCN(C[C@@H](Cc2cn(C)c3ccccc23)N(C(=O)C2CCCCC2)C(=O)C2CCCCC2)CC1.Cl.O (hydrate or solvate) [Example 12, (R)-Cyclohexanecarboxylic acid cyclohexanecarbonyl-{1-[4-(2-methoxyphenyl)-piperazin-1-ylmethyl]-2-(1-methyl-1H-indol-3-yl)ethyl}-amide hydrochloride monohydrate] |
